Results: ChEMBL document CHEMBL1147225, “Tricin from a malagasy connaraceous plant with potent antihistaminic activity” (J Nat Prod, 2003)

Experiments:
[1] = Cytotoxicity against rat RBL2H3 cells at 500 uM by optical microscope; assay type: cell-based; conditions: rbl-2h3, 500 µM
RBL-2H3 = test: Antihistaminic activity in rat RBL2H3 cells assessed as inhibition of DNP-BSA-induced beta-hexosaminidase release preincubated for 10 mins before DNP-BSA challenge; assay type: functional, cell-based

SMILES | Activity [1] | IC50 (RBL-2H3)
O=c1cc(-c2ccccc2)oc2cc(O)cc(O)c12 [CHRYSIN] | Non-toxic | > 500 µM
COc1ccc(-c2cc(=O)c3ccccc3o2)cc1OC [3',4'-DIMETHOXYFLAVONE] | Non-toxic | > 500 µM
COc1ccc(-c2cc(=O)c3c(OC)c(OC)c(OC)c(OC)c3o2)cc1 [TANGERETIN] | Non-toxic | > 500 µM
O=c1cc(-c2ccc(O)c(O)c2)oc2cc(O)cc(O)c12 [LUTEOLIN] | Non-toxic | 58.2 µM
COc1cc(-c2oc3cc(O)cc(O)c3c(=O)c2C(C)=O)cc(OC)c1O | Non-toxic | 212 µM
COc1cc(OC)cc(-c2cc(=O)c3ccccc3o2)c1 [3',5'-DIMETHOXYFLAVONE] | Non-toxic | > 500 µM
O=c1cc(-c2cc([N+](=O)[O-])cc([N+](=O)[O-])c2)oc2cc(O)cc(O)c12 | Non-toxic | > 500 µM
O=C(O)c1cc(=O)c2c(OCC(O)COc3cccc4oc(C(=O)O)cc(=O)c34)cccc2o1 [CROMOLYN SODIUM] |  | 1540 µM
COc1cc(-c2cc(=O)c3c(O)cc(O)cc3o2)cc(OC)c1OC | Non-toxic | 424 µM
COc1c(OC)c(O)c2c(=O)cc(-c3ccc(O)c(O)c3)oc2c1OC [SIDERITIFLAVONE] | Non-toxic | > 500 µM
COc1cc(OC)cc(-c2cc(=O)c3c(O)cc(O)cc3o2)c1 | Non-toxic | > 500 µM
O=c1cc(-c2ccc(O)cc2)oc2cc(O)cc(O)c12 [APIGENIN] | Non-toxic | 124 µM
O=c1cc(-c2ccc(O)cc2)oc2cc(O)c(O)c(O)c12 [SCUTELLAREIN] | Non-toxic | 67.2 µM
COc1c(OC)c(OC)c2c(=O)cc(-c3ccc(O)c(O)c3)oc2c1OC | Non-toxic | 203 µM
COc1ccc(-c2cc(=O)c3c(O)cc(O)cc3o2)cc1OC | Non-toxic | > 500 µM
O=c1cc(-c2ccccc2)oc2cc(O)c(O)c(O)c12 [BAICALEIN] | Non-toxic | 179 µM
COc1cc2oc(-c3ccc(O)cc3)cc(=O)c2c(O)c1OC [CIRSIMARITIN] | Non-toxic | 161 µM
COc1cc(-c2cc(=O)c3ccccc3o2)cc(OC)c1O | Non-toxic | 97.5 µM
COc1cc(-c2cc(=O)c3c(O)cc(O)cc3o2)cc(OC)c1O [TRICIN] | Non-toxic | 4.83 µM
